Data taken from ChEMBL document CHEMBL1131685, “Design and semisynthesis of spermine-sensitive Ribonuclease S'” (Bioorg Med Chem Lett, 1999).

experiment: Binding constant for spermine binding to Ribonuclease S (RNA ase) by saturation curve method

Compound | Log K
NCCN(CCN)CCN | 5
NCCCNCCCCNCCCN | 5

Continued, values first:

Log K | Compound
5.4 | NCCCCNCCCN
5 | NCCNCCNCCN
3.7 | C1CNCCNCCNCCN1

experiment: Association constant required to reduce the S-peptide / S-protein association by nonlinear curve fitting analysis; assay type: ADME

Compound | Log K
H-EETAEAKFERQHMDS-OH | 6.5
H-KEEAAEKFERQHMDS-OH | 6.9

Second part, the compound after the results:

Log K | Compound
7.1 | H-KEDAADKFERQHMDS-OH
7.6 | H-KETAAAKFERQHMDS-OH
7.1 | H-KEEAAAKFERQHMDS-OH
